Data reported in article PMC9057582, “HIF inhibitor 32-134D eradicates murine hepatocellular carcinoma in combination with anti-PD1 therapy” (The Journal of Clinical Investigation, 2022).

Legend:
[1] = system: hypoxia-induced genes in Hep3B cells; experiment: RNA sequencing of Hep3B cells; type: cell-based, human; conditions: 5 μM, 1% O2, 24 hours
Experimental: RNA sequencing (RNA-seq) was performed on 3 biological replicates of Hep3B cells exposed for 24 hours to vehicle at 20% O2, vehicle at 1% O2, or 5 μM 32-134D at 1% O2. […] Overall, 32-134D inhibited the expression of 4,689 genes, of which the 3,326 hypoxia-induced genes represented 71% of the total.
RNA was extracted using TRIzol Reagent. Quantitative real-time PCR was conducted using SYBR Green PCR Master Mix and reactions were run using a Bio-Rad thermal cycler. Primer sequences and reagent sources are listed in Supplemental Table 5. The mRNA expression of target genes was normalized to the expression of 18S rRNA and the fold change (FC) was calculated based on the threshold cycle (Ct) as FC = 2^–Δ(ΔCt), where ΔCt = Cttarget gene – Ct18S rRNA and Δ(ΔCt) = ΔCttreatment – ΔCtcontrol. For RNA-seq, total RNA was isolated and treated with DNase (Qiagen). […] An automated data analysis pipeline run in the Genialis platform consisted of the following: Sequence quality checks were performed on raw and trimmed reads with FastQC. Bbduk was used to trim adapters and filter out poor quality reads. Trimmed reads were then mapped to the STAR index (ENSEMBL 100) reference genome using the STAR ([93]) aligner. Gene expression levels were quantified with featureCounts ([94]), and differential gene expression analyses were performed with DESeq2 ([95]). […]

[2] = system: Hepa1-6 tumor immune microenvironment; experiment: Flow cytometry of immune cell populations in Hepa1-6 tumors; type: in vivo, C57L mice; conditions: 40 mg/kg daily ip, 8 days
Experimental: To analyze the mechanism by which 32-134D increased the response to anti-PD1 therapy, Hepa1-6 tumor–bearing mice were treated with 32-134D or vehicle, and immune cell populations in well-established 200-mm^3 tumors were analyzed by flow cytometry (Supplemental Figure 8). […] The pivotal role of CD8^+ T cells and NK cells in antitumor immunity is underscored by the fact that expression of CD8A and CD8B mRNA as well as KLRK1 and KLRB1 mRNA (encoding the human homologs of CD314 and NK1.1, respectively) in HCC is associated with patient survival (P < 0.05; Supplemental Table 2).
Figure 5 Effect of 32-134D on the tumor immune microenvironment. (A–H) C57L mice were injected with Hepa1-6 HCC cells subcutaneously and when tumors reached a volume of 200 mm^3, the mice were treated with vehicle or 32-134D (40 mg/kg) by daily intraperitoneal injection for 8 days. Single-cell suspensions prepared from each tumor were analyzed by flow cytometry using fluorescent antibodies against the indicated cell surface proteins. The percentage of cells positive for the indicated markers is shown (mean ± SEM, n = 6). *P < 0.05 (Mann-Whitney test). M-MDSCs and G-MDSCs, monocytic and granulocytic myeloid-derived suppressor cells; TAMs, tumor-associated macrophages.
Hepa1-6 tumors were digested with collagenase (1 mg/mL) at 37°C for 30 minutes and the resulting single-cell suspension was passed through a 70-μm cell strainer and washed twice with cold PBS. Cells were resuspended in FC buffer for subsequent flow cytometry analysis. Cells were stained with at least 2 antibodies (see Supplemental Table 6) to capture different immune cell populations. G-MDSCs: Alexa Fluor 405–conjugated anti-CD11b and FITC-conjugated anti-Ly6G; M-MDSCs: Alexa Fluor 405–conjugated anti-CD11b and FITC-conjugated anti-Ly6C; TAMs: Alexa Fluor 405–conjugated anti-CD11b and allophycocyanin-conjugated (APC-conjugated) anti-F4/80; dendritic cells: Alexa Fluor 405–conjugated anti-CD11b, FITC-conjugated anti-CD11c, and APC-conjugated anti-F4/80; cytotoxic NK cells: FITC-conjugated anti-CD3, APC-conjugated anti-NK1.1, and Alexa Fluor 405–conjugated anti-CD314; effector T cells: phycoerythrin-conjugated (PE-conjugated) anti-CD8A and Alexa Fluor 405–conjugated anti–IFN-γ; activated T cells: PE-conjugated anti-CD8A, FITC-conjugated anti-CD69, and APC-conjugated anti-CD44; regulatory T cells: APC-conjugated anti-CD4, FITC-conjugated anti-CD25, and PE-conjugated anti-FOXP3. Live cells were gated using side-scatter and forward-scatter plots, and data were acquired using FACSDiva software (Becton Dickinson). Cell populations were gated using unstained control and single stained cell samples. Data analysis was performed using FlowJo software.
Supplemental Figure 8. Effect of 32-134D on Hepa1-6 tumor immune cell microenvironment. […]

For Brc1ccc2c(-c3csc(-c4c[nH]c5c(Br)cccc45)n3)c[nH]c2c1 [Compound 32-134D], the “total number of genes whose expression was inhibited” value [1] was 4,689 genes, the “number of hypoxia-induced genes whose expression was inhibited” value ([1]; of 3,849 hypoxia-induced mRNAs) was 3,326 genes and the “increase in the ratio of effector T cells to TAMs” value [2] was 3 fold. For the same molecule, the “percentage of regulatory T cells, G-MDSCs, and dendritic cells in tumors” value [2] was “not significantly affected”, the “percentage of CD8+IFN-γ+ effector T cells, CD8+CD44+CD69+ activated T cells, and NK1.1+CD3–CD314+ activated NK cells in tumors” value ([2]; P < 0.05) was “significantly increased” and the “percentage of intratumoral CD11b+F4/80+ TAMs and CD11b+Ly6C+ M-MDSCs” value ([2]; P < 0.05) was “decreased percentage”.
